Test results from ChEMBL document CHEMBL1201862, “PubChem BioAssay data set” (2004).
Calls of active or inactive are those of the source.

What was measured:
Aminopeptidase N = target: T1, Aminopeptidase N (Plasmodium falciparum FcB1/Columbia, UniProt O96935); experiment: malaria alanyl aminopeptidase activity blockers – biochemical, fluorogenic H-Leu-NHMec substrate, 1536-well (AID 1445); parameters: species or system Plasmodium falciparum 3D7, 3D7
T1 sequence (O96935 whole entry): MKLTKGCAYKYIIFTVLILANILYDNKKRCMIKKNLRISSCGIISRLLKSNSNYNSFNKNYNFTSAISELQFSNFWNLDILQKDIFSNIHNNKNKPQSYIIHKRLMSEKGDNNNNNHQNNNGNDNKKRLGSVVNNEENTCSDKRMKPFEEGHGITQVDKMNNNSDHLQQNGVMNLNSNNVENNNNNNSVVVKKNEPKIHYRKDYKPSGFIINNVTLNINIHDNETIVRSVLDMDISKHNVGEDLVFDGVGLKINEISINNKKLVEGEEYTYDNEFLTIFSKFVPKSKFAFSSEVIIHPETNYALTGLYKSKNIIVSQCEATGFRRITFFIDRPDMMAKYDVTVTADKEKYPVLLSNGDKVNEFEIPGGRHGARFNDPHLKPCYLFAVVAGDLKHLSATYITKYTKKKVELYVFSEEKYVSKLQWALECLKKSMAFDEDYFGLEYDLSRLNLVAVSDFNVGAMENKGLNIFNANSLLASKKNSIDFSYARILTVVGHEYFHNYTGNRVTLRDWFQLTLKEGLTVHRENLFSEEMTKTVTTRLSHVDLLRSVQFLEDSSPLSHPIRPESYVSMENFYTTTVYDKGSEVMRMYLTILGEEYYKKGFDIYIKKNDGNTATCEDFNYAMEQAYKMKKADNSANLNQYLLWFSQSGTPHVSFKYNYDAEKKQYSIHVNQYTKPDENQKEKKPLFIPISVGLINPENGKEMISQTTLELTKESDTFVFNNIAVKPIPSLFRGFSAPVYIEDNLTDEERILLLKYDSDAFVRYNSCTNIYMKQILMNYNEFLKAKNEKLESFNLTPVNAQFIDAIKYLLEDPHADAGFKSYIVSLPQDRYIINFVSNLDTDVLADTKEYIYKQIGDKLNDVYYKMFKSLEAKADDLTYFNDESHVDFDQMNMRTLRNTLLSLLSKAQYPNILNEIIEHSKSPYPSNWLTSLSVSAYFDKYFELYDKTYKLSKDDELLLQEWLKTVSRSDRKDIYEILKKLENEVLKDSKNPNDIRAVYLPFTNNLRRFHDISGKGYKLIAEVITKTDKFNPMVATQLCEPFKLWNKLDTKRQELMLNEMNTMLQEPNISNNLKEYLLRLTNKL

[1] = target: Transitional endoplasmic reticulum ATPase (Homo sapiens, UniProt P55072); experiment: p97 ATPase inhibitors, dose response, biochemical (AID 1534)
Chain of Transitional endoplasmic reticulum ATPase (Homo sapiens, UniProt P55072) (P55072 whole entry): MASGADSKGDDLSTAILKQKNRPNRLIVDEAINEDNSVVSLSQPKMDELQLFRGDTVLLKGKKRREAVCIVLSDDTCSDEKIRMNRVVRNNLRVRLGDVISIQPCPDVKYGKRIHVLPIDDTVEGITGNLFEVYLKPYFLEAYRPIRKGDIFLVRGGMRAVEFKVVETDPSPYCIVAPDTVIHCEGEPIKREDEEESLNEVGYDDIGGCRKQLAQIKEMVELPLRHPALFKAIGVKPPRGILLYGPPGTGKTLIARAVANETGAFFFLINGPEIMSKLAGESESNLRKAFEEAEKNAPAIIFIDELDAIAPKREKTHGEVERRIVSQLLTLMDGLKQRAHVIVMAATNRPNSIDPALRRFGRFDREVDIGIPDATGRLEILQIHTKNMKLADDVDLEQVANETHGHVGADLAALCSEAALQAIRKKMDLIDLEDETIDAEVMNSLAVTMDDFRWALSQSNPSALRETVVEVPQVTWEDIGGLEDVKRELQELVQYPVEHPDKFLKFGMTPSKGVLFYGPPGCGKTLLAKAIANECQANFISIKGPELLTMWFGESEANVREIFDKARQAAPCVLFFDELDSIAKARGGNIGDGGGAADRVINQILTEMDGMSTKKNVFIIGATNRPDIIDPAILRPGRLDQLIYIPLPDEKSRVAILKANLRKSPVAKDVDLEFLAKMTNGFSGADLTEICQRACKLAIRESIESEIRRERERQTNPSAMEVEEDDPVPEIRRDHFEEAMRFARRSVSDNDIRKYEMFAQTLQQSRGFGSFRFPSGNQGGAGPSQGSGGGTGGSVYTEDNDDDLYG

Insulin-degrading enzyme = target: T2, Insulin-degrading enzyme (Homo sapiens, UniProt P14735); experiment: Dose Response: Fluorescence polarization-based cell-based high throughput dose response assay for inhibitors of insulin-degrading enzyme (IDE). [Related pubchem assays: 434962 (Primary screen (IDE inhibitors in singlicate)), 449730 (Counterscreen (Cytotoxicity in triplicate)), 435028 (Confirmation (IDE inhibitors in triplicate)), 434984 (Summary …; format: functional
T2 sequence (P14735 whole entry): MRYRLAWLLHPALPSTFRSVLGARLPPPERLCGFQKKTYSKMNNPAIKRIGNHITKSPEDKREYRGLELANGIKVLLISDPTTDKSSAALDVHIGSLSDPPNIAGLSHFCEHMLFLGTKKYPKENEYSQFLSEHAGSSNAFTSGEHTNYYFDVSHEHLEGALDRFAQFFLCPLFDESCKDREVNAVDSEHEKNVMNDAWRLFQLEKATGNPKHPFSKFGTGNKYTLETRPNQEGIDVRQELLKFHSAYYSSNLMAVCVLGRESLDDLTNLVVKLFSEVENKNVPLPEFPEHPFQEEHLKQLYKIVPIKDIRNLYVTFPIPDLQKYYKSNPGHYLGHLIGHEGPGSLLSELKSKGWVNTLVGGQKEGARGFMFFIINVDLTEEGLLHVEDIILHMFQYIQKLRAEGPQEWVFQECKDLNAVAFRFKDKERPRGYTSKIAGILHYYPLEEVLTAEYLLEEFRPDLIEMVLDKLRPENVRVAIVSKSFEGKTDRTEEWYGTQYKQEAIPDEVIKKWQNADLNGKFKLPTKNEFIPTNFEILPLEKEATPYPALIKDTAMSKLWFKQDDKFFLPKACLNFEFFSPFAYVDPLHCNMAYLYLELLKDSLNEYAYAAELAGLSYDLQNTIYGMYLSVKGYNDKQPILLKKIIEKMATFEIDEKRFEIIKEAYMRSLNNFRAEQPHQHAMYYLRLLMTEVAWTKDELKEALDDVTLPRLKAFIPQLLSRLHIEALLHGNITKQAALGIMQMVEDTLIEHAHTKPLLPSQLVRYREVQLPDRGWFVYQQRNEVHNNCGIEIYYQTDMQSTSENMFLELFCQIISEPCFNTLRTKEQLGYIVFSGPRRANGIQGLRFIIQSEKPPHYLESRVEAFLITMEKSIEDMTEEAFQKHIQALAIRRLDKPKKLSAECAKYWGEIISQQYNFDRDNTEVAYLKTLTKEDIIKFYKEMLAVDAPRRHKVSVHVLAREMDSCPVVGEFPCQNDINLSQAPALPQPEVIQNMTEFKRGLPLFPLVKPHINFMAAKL

[2] = target: Transitional endoplasmic reticulum ATPase (Homo sapiens, UniProt P55072, C522A); experiment: C522A mutant p97 ATPase inhibitors, dose response, counter-screen for p97 inhibitor project, biochemical, luminescence (AID 1544)
Chain of Transitional endoplasmic reticulum ATPase (Homo sapiens, UniProt P55072, C522A) (P55072 2-806 C522A limits assumed): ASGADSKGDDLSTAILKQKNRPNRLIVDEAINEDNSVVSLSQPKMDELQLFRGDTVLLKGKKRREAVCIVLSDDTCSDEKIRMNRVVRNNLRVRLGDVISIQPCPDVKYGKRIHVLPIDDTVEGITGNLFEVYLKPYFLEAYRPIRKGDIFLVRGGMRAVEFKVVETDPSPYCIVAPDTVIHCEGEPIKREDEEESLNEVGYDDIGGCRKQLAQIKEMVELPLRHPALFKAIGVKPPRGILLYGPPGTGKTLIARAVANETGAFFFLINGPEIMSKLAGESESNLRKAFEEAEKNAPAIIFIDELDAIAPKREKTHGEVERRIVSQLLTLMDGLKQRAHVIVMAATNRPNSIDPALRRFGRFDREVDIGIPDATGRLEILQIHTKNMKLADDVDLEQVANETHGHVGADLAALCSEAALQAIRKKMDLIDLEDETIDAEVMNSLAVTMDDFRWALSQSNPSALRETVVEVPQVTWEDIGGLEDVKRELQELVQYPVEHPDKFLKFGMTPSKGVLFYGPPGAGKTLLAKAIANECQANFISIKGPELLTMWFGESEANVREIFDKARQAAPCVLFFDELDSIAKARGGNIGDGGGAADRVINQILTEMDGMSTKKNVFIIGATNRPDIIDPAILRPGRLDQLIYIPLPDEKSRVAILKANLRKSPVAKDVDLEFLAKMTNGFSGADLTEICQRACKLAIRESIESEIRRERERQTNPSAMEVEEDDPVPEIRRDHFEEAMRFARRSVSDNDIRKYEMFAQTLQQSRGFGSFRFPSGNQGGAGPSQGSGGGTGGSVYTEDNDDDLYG

[3] = target: T3, Histone-lysine N-methyltransferase NSD2 (Homo sapiens, UniProt O96028); format: biochemical
T3 sequence (O96028 whole entry): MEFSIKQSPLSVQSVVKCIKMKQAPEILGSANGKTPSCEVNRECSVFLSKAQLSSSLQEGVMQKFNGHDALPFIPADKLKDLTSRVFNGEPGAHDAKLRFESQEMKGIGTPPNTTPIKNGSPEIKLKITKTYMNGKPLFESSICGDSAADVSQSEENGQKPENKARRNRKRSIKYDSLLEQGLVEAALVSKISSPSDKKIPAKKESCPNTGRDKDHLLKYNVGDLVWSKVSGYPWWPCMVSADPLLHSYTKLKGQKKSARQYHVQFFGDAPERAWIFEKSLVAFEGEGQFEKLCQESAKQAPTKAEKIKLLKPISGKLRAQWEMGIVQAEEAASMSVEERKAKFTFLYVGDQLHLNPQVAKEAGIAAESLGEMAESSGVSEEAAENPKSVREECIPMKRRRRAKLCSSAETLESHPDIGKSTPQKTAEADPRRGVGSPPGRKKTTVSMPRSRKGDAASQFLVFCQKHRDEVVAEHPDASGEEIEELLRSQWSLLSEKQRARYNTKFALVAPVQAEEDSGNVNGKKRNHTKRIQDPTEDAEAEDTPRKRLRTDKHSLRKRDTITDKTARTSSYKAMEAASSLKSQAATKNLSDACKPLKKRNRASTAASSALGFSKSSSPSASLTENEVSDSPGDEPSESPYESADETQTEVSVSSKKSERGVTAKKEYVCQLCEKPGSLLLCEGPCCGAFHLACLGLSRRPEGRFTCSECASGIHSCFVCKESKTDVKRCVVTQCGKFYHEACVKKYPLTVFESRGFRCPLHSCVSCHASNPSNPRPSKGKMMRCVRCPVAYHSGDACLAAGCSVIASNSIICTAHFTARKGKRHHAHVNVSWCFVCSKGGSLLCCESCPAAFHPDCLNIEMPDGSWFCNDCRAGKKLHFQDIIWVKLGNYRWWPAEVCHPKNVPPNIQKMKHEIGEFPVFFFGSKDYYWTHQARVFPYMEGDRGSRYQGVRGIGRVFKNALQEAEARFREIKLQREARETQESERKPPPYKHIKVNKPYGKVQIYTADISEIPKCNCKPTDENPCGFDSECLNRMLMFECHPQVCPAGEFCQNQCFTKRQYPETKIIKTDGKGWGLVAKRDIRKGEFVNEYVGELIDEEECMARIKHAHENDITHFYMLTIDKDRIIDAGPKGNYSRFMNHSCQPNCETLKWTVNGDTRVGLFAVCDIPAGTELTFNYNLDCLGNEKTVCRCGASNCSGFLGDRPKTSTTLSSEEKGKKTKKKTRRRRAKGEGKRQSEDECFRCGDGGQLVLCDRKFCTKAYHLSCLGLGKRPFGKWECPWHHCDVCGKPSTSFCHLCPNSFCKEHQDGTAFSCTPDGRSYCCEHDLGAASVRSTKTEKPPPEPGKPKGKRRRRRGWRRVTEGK

[4] = Counterscreen for IDE inhibitors: Luminescence-based cell-based high throughput dose response assay to identify compounds that are cytotoxic to HEK cells. [Related pubchem assays: 434962 (Primary screen (IDE inhibitors in singlicate)), 449730 (Counterscreen (Cytotoxicity in triplicate)), 435028 (Confirmation (IDE inhibitors in triplicate)) …; format: functional; conditions: HEK293
Kallikrein-7 = Kallikrein-7 (Homo sapiens, UniProt P49862); experiment: Fluorescence Intensity-based biochemical primary high throughput dose response assay to identify activators of kallikrein-7 (K7) zymogen.
Chain of Kallikrein-7 (P49862 whole entry, the tested form may be a part): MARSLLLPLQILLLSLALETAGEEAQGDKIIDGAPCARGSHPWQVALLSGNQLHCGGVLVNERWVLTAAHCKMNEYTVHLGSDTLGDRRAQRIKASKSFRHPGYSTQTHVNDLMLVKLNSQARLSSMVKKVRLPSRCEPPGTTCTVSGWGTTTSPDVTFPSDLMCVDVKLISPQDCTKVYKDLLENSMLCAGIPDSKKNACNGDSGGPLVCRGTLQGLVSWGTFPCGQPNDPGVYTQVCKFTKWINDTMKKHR

[5] = viability loss in CEM21 cells – cell-based, CellTiter-Glo luminescence, cherry-picked, cytotoxicity control for viral fusion inhibitor project, dose response (AID 652042); format: functional;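 note: potency for signal decrease meaning cytotoxicity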
[6] = P. falciparum Dd2 growth inhibitors, dose response, SYBR Green, cherry-picked samples (AID 1159567); format: functional, cell-based
[7] = HIV-1 AD8 envelope cell-cell fusion blockers – cherry-pick, dose response (AID 652062); format: functional, cell-based;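 note: luciferase signal from cell-cell fusion driven by HIV-1 clade B AD8 Env; potency is for inhibitors of fusion seen as a drop in luminescence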
[8] = inhibition of Env-driven cell fusion – HIV entry, plate reader, dry powder, dose response (AID 687023); format: functional, cell-based
[9] = blockers of HIV-1 envelope-mediated cell-cell fusion – cherry-pick, dose response (AID 652057); format: functional, cell-based
[10] = toxicity to human hepatoma HepG2 cells – cell-based, cherry-picked samples, cytotoxicity control, dose response (AID 1159577); format: functional
[11] = COV434 cell viability loss – plate reader, dry powder, SA7, cytotoxicity control for PAX8 inhibitor project, dose response (AID 743145); format: functional, cell-based
[12] = OV-90 cell viability loss – plate reader, dry powder, SA8, PAX8 inhibitor project, dose response (AID 743149); format: functional, cell-based
[13] = PAX8-dependent cell viability loss – plate reader, dry powder, dose response (AID 743049); format: functional, cell-based
[14] = inhibitors acting on PAX2 in cells – cell-based, plate reader, dry powder samples, selectivity assay for PAX8 inhibitor project, dose response (AID 743048); format: functional;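 note: HEK293 cells carrying a WT1 promoter luciferase reporter driven by expressed Pax2; potency is for inhibition of Pax2 driven reporter signal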
[15] = PAX5 cellular inhibition readout – cell-based, plate reader, dry powder samples, selectivity assay for PAX8 inhibitor project, dose response (AID 743047); format: functional;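 note: HEK293 cells carrying a Pax5 driven CD19 promoter luciferase reporter; potency of inhibitors that lower reporter luminescence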
[16] = CMV-driven luciferase expression suppression in HEK293 – cell-based, luminescence, dry powder, counter-screen for Pax8 inhibitor project, dose response (AID 743020); format: functional
[17] = general mammalian cell viability loss – activator set, cherry-pick, cytotoxicity control for miR-122 modulator project, dose response (AID 720690); format: functional, cell-based;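 note: HEK293T human cells scored for general mammalian cytotoxicity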
[18] = OVCAR8 cell viability loss – plate reader, dry powder samples, PAX8 project, dose response (AID 743197); format: functional, cell-based; conditions: OVCAR-8
Paired box protein Pax-8 = Paired box protein Pax-8 (Homo sapiens, UniProt Q06710); experiment: PAX8 transcriptional activity inhibition in RMG-I – RMG-I cells, luciferase, cherry-pick, dose response (AID 687027); format: functional, cell-based;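 note: luciferase reporter driven by Pax8 target thyroperoxidase promoter measured by SteadyGlo luminescence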
Chain of Paired box protein Pax-8 (Q06710 whole entry): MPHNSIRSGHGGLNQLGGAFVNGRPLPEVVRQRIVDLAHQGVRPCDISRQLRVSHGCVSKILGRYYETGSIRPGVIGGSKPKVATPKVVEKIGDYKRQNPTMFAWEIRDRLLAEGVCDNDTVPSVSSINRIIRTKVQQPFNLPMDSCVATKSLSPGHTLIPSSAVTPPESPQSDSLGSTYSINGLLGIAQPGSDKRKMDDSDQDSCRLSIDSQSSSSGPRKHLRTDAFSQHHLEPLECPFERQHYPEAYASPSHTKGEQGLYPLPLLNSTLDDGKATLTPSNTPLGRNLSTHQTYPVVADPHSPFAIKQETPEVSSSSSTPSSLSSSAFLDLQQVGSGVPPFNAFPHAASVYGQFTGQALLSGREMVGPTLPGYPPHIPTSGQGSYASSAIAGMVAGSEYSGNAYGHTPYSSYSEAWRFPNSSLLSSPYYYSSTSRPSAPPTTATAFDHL

[19] = target: NAD-dependent protein deacylase sirtuin-5, mitochondrial (Homo sapiens, UniProt Q9NXA8); experiment: blockers of sirtuin-5 peptide desuccinylation – biochemical, fluorescence imaging, cherry-pick, set 6, dose response (AID 720597)
Chain of NAD-dependent protein deacylase sirtuin-5, mitochondrial (Q9NXA8 whole entry): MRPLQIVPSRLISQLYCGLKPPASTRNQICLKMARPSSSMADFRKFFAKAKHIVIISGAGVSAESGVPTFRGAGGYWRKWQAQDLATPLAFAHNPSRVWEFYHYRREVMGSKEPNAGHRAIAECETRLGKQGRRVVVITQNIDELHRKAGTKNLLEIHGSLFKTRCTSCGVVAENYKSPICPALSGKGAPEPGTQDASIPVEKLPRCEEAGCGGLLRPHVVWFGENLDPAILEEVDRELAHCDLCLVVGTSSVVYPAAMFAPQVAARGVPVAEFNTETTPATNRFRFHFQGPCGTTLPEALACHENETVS

[20] = Trypanosoma cruzi replication inhibitors in host cells – cell-based, plate reader, dry powder samples, dose response (AID 651845); format: functional
[21] = T. cruzi growth inhibition in host cells, dose response, cell-based, plate reader, dry powder, set 2 (AID 652275); format: functional
[22] = anti-trypanosomal activity in BESM host cells – imaging, CA-I/72 strain, bovine embryo skeletal muscle, dry powder, dose response (AID 651885); format: functional, cell-based

SMILES: N=C1/C(=C\c2coc3ccccc3c2=O)C(=O)N=C2SC(c3ccncc3)=NN12
- IC50 (Aminopeptidase N): 44 µM (active)
- IC50 [1]: 11.1 µM (not active)
- IC50 (Insulin-degrading enzyme): > 18.6 µM (not active)
- IC50 [2]: 9.26 µM (active)
- AC50 [3]: 18.8 µM (active)
- IC50 [4]: 30.1 µM (not active)
- EC50 (Kallikrein-7): > 7.72 µM (active)

SMILES: CO[C@@H]1CN(C)C(=O)c2ccc(NC(=O)Nc3cccc(F)c3)cc2OC[C@@H](C)N(C(=O)Nc2cccc(F)c2)C[C@H]1C
- AC50 [5]: 61.4 µM (active)
- AC50 [6]: 3.07 µM (active)
- AC50 [7]: 61 µM (active)
- AC50 [8]: 8.94 µM (active)
- AC50 [9]: 3.17 µM (active)
- AC50 [10]: > 42 µM (inactive)

SMILES: C[C@H](CO)N1C[C@H](C)[C@@H](CN(C)Cc2ccc(C(F)(F)F)cc2)Oc2ccc(NS(=O)(=O)c3ccc(Cl)cc3)cc2CC1=O
- AC50 [11]: 37.7 µM (active)
- AC50 [12]: 39 µM (active)
- AC50 [13]: 21.9 µM (active)
- AC50 [14]: 28.6 µM (active)
- AC50 [15]: 29.8 µM (active)
- AC50 [16]: 41.8 µM (active)
- AC50 [17]: 12.9 µM (active)
- AC50 [18]: > 70 µM (inactive)
- AC50 (Paired box protein Pax-8): 11.2 µM (active)

SMILES: CO[C@H]1CN(C)C(=O)c2ccc(NC(=O)C3CC3)cc2OC[C@@H](C)N(C(=O)c2ccccc2F)C[C@H]1C
- AC50 [19]: > 30 µM (inactive)

SMILES: C[C@@H]1CN([C@@H](C)CO)C(=O)c2cccc(NC(=O)c3ccncc3)c2O[C@H]1CN(C)Cc1cccc(Cl)c1
- AC50 [20]: 0.0706 µM (active)
- AC50 [21]: 0.0169 µM (active)
- IC50 [22]: 0.0074 µM (active)
